Values joined by “and” are separate entries in the source; they are usually repeats but may differ in a detail not shown here. Identical values can stand only once.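 Each compound was tested at five concentrations against cells in 96-well plates for 48 hours. GI50: concentration for 50% inhibition of growth. TGI: concentration producing complete growth inhibition.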 Where a SMILES comes first, the peptide text is derived from it. [ ]: non-standard residue; d: D form. The star is where a group is joined. ξ: configuration not given here. X3 = COc1ccc(C(N*)c2ccc(OC)cc2)cc1; NMeF = CN[C@@H](Cc1ccccc1)C(=O)O; NMeD = CN[C@@H](CC(=O)O)C(=O)O; NMeV = CN[C@H](C(=O)O)C(C)C; ξNMeV = CNC(C(=O)O)C(C)C; Boc = CC(C)(C)OC(=O)*; ξNMeA = CNC(C)C(=O)O; ξV = CC(C)C(N)C(=O)O
Legend:
Assay in all cases: inhibition of tumour cell growth, NCI panel, 48 h
[1] = tested on: UACC-257 melanoma
[2] = tested on: EKVX NSCLC
[3] = tested on: RPMI-8226 leukemia
[4] = tested on: COLO 205 colon
[5] = tested on: DU-145 prostate
[6] = tested on: SF-268 CNS
[7] = tested on: A498 renal
[8] = tested on: HCC-2998 colon
[9] = tested on: HOP-92 NSCLC
[10] = tested on: OVCAR-8 ovarian

Structure (SMILES) | GI50 [1] [µM] | TGI [1] | GI50 [2] | TGI [2] | GI50 [3] | TGI [3] | GI50 [4] | TGI [4] | GI50 [5] | TGI [5] | GI50 [6] | TGI [6] | GI50 [7] | TGI [7] | GI50 [8] | TGI [8] | GI50 [9] | TGI [9] | GI50 [10] | TGI [10]
CN(C)c1cc(NN=C(c2ccc(O)cc2)c2ccc(O)cc2)c([N+](=O)[O-])cc1[N+](=O)[O-] | 13.4 | 27.3 µM | 5.49 µM | 18.1 µM | 3.34 µM | 27.2 µM | 8.52 µM | 24.7 µM | 10.2 µM | 23.6 µM | 3.88 µM | 15.9 µM | 8.18 µM | 21.6 µM | 13.8 µM | 27.8 µM | 10.2 µM | 25.4 µM | 7.73 µM | 46.5 µM
COc1ccc(C(NC(=O)C[C@@H](C(=O)N(C)C(C)C(=O)O)N(C)C(=O)[C@@H]2CCCN2C(=O)[C@H](C(C)C)N(C)C(=O)C(C(C)C)N(C)C(=O)[C@H](Cc2ccccc2)N(C)C(=O)C(NC(=O)OC(C)(C)C)C(C)C)c2ccc(OC)cc2)cc1 (stereo partly drawn) (Boc-[ξV][NMeF][ξNMeV][NMeV]P[NMeD](X3)[ξNMeA]-OH) | 17.3 | 23 µM and 32.2 µM | 21.6 µM | 37.5 µM and 39.6 µM | – | 19.5 µM | 17.2 µM | 32.1 µM and 30.9 µM | – | 37.5 µM | 15.1 µM | 31.9 µM and 28.6 µM | 20.1 µM | > 37.5 µM and 35.7 µM | 19.3 µM | 14.8 µM and 36 µM | 15.8 µM | 23.8 µM and 29.2 µM | 19.1 µM | 37.5 µM and 33.7 µM
CC1(COc2ccc3c(c2)ncn3-c2ccc3cccc(N4CCC(N)CC4)c3n2)COC1 | 2.7 | 5.36 µM and 5.55 µM | 3.02 µM and 3.28 µM | 13.2 µM and > 10 µM | 2.08 µM and 1.88 µM | 5.29 µM and 5.21 µM | 1.09 µM and 1.02 µM | 2.44 µM and 2.86 µM | 2.19 µM and 1.5 µM | 13 µM and > 10 µM | 2.74 µM and 2.85 µM | 9.15 µM and > 10 µM | 5.01 µM and 2.03 µM | 10.7 µM and 4.27 µM | 2.7 µM and 2.25 µM | 7.51 µM and 7.85 µM | 10.3 µM and 3.27 µM | 25.7 µM and > 10 µM | 2.82 µM and 2.84 µM | 10.7 µM and > 10 µM
O=C1CN(c2cccc(Cl)c2)C(=O)CN1CCN1CC(=O)N(c2cccc(Cl)c2)CC1=O | – | > 100 µM | – | > 100 µM | – | > 100 µM | – | > 100 µM | – | > 100 µM | – | > 100 µM | – | > 100 µM | – | > 100 µM | – | > 100 µM | – | > 100 µM
COCCOc1ccc(-c2nc3ccc(-c4nc5ccc(N6CCN(C)CC6)cc5[nH]4)cc3[nH]2)cc1 | 1.71 | 5.92 µM | 6.56 µM | 46.3 µM | 4.11 µM | 35.5 µM | 0.371 µM | 3.05 µM | 1.13 µM | 9.59 µM | 0.576 µM | 5.67 µM | 1.21 µM | 3.39 µM | 1.78 µM | 3.77 µM | 2.16 µM | 9.71 µM | 0.931 µM | 23.4 µM
O=C(Nc1ccc(Oc2ccc(Nc3nc4ccccc4s3)cc2)cc1)Nc1ccc(Cl)c(C(F)(F)F)c1 | 1.83 | 6.09 µM | 1.62 µM | 5.45 µM | 1.11 µM | 4.34 µM | 1.64 µM | 3.25 µM | 2.47 µM | 7.22 µM | 1.94 µM | 4.74 µM | 1.46 µM | 3.16 µM | 1.87 µM | 3.91 µM | 0.73 µM | 3.28 µM | 2.22 µM | 7.29 µM
CCCCCCCCCCn1cc[n+](C)c1 | 1.81 | 9.92 µM | 0.536 µM | 11.6 µM | 0.109 µM | 0.448 µM | 1.7 µM | 7.01 µM | 5.25 µM | 30.7 µM | 3.77 µM | 18.3 µM | 0.383 µM | 9.73 µM | 1.56 µM | 11.2 µM | 2.92 µM | 22.6 µM | 1.67 µM | 15.8 µM
COc1ccc2nc3cc(Cl)ccc3c(NCCNCC(C)O)c2c1 (stereo not drawn) | 2.14 | 3.73 µM | 2.6 µM | 10.7 µM | 2.54 µM | 6.36 µM | 1.11 µM | 2.79 µM | 2.12 µM | 8.57 µM | 2.36 µM | 12.3 µM | 1.28 µM | 2.84 µM | 1.38 µM | 2.94 µM | 2.6 µM | 6.68 µM | 1.94 µM | 7.65 µM
c1ccc(Sc2ncnc3ccccc23)cc1 | 11.9 | 34.7 µM | 10.6 µM | 25.1 µM | 9.49 µM | 37.6 µM | 15 µM | 28.3 µM | 12 µM | 24.9 µM | 13.9 µM | 41.7 µM | 15.4 µM | 39.2 µM | 15.4 µM | 28.7 µM | 4.49 µM | 27.5 µM | 19.8 µM | 75.9 µM
Cc1nnc(NC(=O)c2nc(S(=O)(=O)Cc3ccc(F)cc3)ncc2Cl)s1 | 2.1 | 7.61 µM | 6.73 µM | 24.3 µM | 2.21 µM | 12.8 µM | 1.82 µM | 3.68 µM | 9.44 µM | 21.7 µM | 3.88 µM | 16.8 µM | 13.1 µM | 26.4 µM | 13.4 µM | 29.4 µM | 1.66 µM | 3.22 µM | 2.72 µM | 7.77 µM
CC(=O)CC(OC(C)=O)C1=CCC2C(CC1C)OC(=O)C2C (stereo not drawn) | – | > 100 µM | – | > 100 µM | – | > 100 µM | – | > 100 µM | – | > 100 µM | – | > 100 µM | – | > 100 µM | – | > 100 µM | – | > 100 µM | – | > 100 µM
